Laboratory results published in publication PMC9980389, “Structural and biochemical insights into PsEst3, a new GHSR-type esterase obtained from Paenibacillus sp. R4” (IUCrJ, 2023).

Columns and labels:
PsEst3 [1] = target: T1, PsEst3 (Paenibacillus sp. R4, UniProt Z9AKP1HDK8); assay: fluorescein diester hydrolysis, fluorescence […] nm; format: biochemical; details: 20 mM Tris-HCl pH 8.0, 150 mM NaCl, 30 °C, 0.1 µM substrate, 10% 2-ethoxyethanol, 0.005% CHAPS
T1 construct: pET-22b in E. coli BL21(DE3)/pPsyGroELS, 6xHis tag kept (Ni-NTA, SEC); residues 4-258 built, including part of the His tag
T1 sequence (Z9AKP1HDK8 1-257): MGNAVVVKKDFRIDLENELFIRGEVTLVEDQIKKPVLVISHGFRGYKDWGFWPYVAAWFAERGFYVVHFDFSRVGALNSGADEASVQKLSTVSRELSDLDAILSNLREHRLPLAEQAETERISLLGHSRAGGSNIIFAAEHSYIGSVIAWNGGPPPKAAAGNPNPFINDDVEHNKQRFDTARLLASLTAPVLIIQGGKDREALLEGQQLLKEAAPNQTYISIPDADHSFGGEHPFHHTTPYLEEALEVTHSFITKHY

PsEst3 [2] = target: T1, PsEst3; assay: inhibition of pNP-C2 hydrolysis, absorbance […] nm; format: biochemical; details: substrate pNP-C2

Row | % decrease in activity at 2.4 mM (PsEst3 [2]) | SMILES | fluorescein diester hydrolysis, fluorescence 492/512 nm (PsEst3 [1])
1 |  | CCCC(=O)Oc1ccc2c(c1)Oc1cc(OC(=O)CCC)ccc1C21OC(=O)c2ccccc21 [fluorescein-diC4, fluorescein dibutyrate] | fluorescein diesters (fluorescein-diC4, fluorescein-diC8 and fluorescein-diC12) were measured
2 | ~ 40% | O=C(O)/C=C\C(=O)O [maleic acid] | 
